Data on 2 compounds can be found in patent publication US20060134204A1, “Complexes made using low solubility drugs” (priority 2004, published 2006).

A short description of the data set: Crystallinity of the complex by powder X-ray diffraction (XRD). It counts as physicochemical. To be noted: PANalytical X'Pert Pro, percent crystallinity. An excerpt:
“Crystallinity” means the degree to which a chemical entity is present in a crystalline form. This degree can be expressed in units such as percent crystallinity. X-Ray diffraction (“XRD”) techniques can be used to determine crystallinity of substances, including inventive substances. From an XRD spectra, the percent crystallinity may be calculated as: Percent crystallinity=(sum of net intensity)/(sum of observed intensity) where the sum of net intensity=integrated area of peak intensity above the baseline, and sum of observed intensity=integrated area of total peak intensity including sum of net intensity and integrated area under baseline. Additional information about use of XRD to determine percent crystallinity may be found in R. Jenkins et al., Introduction to X-Ray Powder Diffractometry, John Wiley & Sonds, Inc. (1996). Qualitative determination of crystallinity of the complex of Example 1 was conducted with PANalytical X'Pert Pro Powder X-ray Diffraction (XRD) System. […] The crystallinity of sodium lauryl sulfate was determined to be 32%, and the crystallinity of the physical mixture was determined to be 50%.

Take `OCCC#Cc1nc(-c2ccc(F)cc2)c(-c2ccncc2)n1CCCc1ccccc1` [4-(4-Fluorophenyl)-2-(4-hydroxy-1-butynyl)-1-(3-phenylpropyl)-5-(4-pyridyl)imidazole]: the crystallinity amounted to 63%.
The result for `CCCCCCCCCCCCOS(=O)(=O)[O-].[Na+]` [sodium lauryl sulfate] reads 32%.
